# Source: patent EP4467141A1, “PYRAZOLO-QUINOLINES AS SELECTIVE INHIBITORS OF GENOTOXIC STRESS-INDUCED IKK/NF- KB PATHWAYS FOR CANCER THERAPY” (Max-Delbrück-Centrum für Molekulare Medizin in der …, priority 2023, dated 2024)
# Legend:
# [1] = HPLC of media supernatant from U2-OS cell culture (degradation); assay type: physicochemical; details: 10µM
# [2] = tested on: p65 nuclear translocation; assay: HCS counter-screen: TNFα-induced p65 nuclear translocation in U2-OS cells; assay type: cell-based
# Protocol: Fig.1: Identification of inhibitors specific for DNA damage-induced NF-κB activity. (A) Flowchart representing the high-throughput chemical library screening. A screen/counter-screen strategy was used by stimulating NF-κB in U2-OS cells with etoposide (50 µM for 90 min) and hits were counter-screened with TNFα (10 ng/ml for 20 min). Cells were pre-treated with compounds (10 µM) for 1 hour before stimulation, fixed, and percent p65 nuclear translocation measured by fluorescence microscopy. IC50 values were used for final selection. (B) Comparison of mean p65 nuclear translocation following either etoposide or TNFa stimulation after treatment with each counter-screened hit compound. Values were normalized to etoposide or TNFα positive controls. Specific inhibitors (red) of DNA damage-induced NF-κB signaling were defined by setting cut-off criteria (black line). […] (E) Western blot analysis (top) and quantification (bottom) of NF-κB subunit p65 phosphorylation (S536) following 1-hour pre-treatment with DMSO, MW01 (10 µM), or MW05 (10 µM), in unstimulated, after 90 min irradiation (IR, 20 Gy), or after 20 min TNFα (10 ng/mL) conditions in U2- OS cells. […]
# To identify inhibitors that selectively prevent DNA damage-induced NF-κB activation, we established a high-throughput screening platform quantifying p65 nuclear translocation, an essential step in NF-κB activation (Hayden and Ghosh, 2008). […]
# [3] = tested on: NF-κB subunit p65 phosphorylation (S536); assay: Western blot of p65 phosphorylation (S536) after TNFα in U2-OS cells; assay type: cell-based; details: 1-hour pre-treatment, TNFα 10 ng/ml, 20 min
# Protocol: Fig.1: Identification of inhibitors specific for DNA damage-induced NF-κB activity. (A) Flowchart representing the high-throughput chemical library screening. A screen/counter-screen strategy was used by stimulating NF-κB in U2-OS cells with etoposide (50 µM for 90 min) and hits were counter-screened with TNFα (10 ng/ml for 20 min). Cells were pre-treated with compounds (10 µM) for 1 hour before stimulation, fixed, and percent p65 nuclear translocation measured by fluorescence microscopy. IC50 values were used for final selection. (B) Comparison of mean p65 nuclear translocation following either etoposide or TNFa stimulation after treatment with each counter-screened hit compound. Values were normalized to etoposide or TNFα positive controls. Specific inhibitors (red) of DNA damage-induced NF-κB signaling were defined by setting cut-off criteria (black line). […] (C) IC50 determination for MW01 (left) and MW05 (right) of p65 nuclear translocation, following either etoposide or TNFα treatment. […] IC50 noted with a dotted line. […] (E) Western blot analysis (top) and quantification (bottom) of NF-κB subunit p65 phosphorylation (S536) following 1-hour pre-treatment with DMSO, MW01 (10 µM), or MW05 (10 µM), in unstimulated, after 90 min irradiation (IR, 20 Gy), or after 20 min TNFα (10 ng/mL) conditions in U2- OS cells. […]
# NF-κB was stimulated by DNA damage through either 20 Gy irradiation (IR) and analyzed after 90 minutes or by 10 ng/ml TNFα and analyzed after 20 minutes unless otherwise noted. […]
# Cells were collected by scraping and lysed in Baeuerle lysis buffer supplemented with Protease (Thermo Fisher Scientific, 78429) and Phosphatase (Thermo Fisher Scientific, 78420) inhibitors after the appropriate treatment and time point. Proteins were quantified by Bradford assay (Bio-Rad, 5000006) and 20-50 µg of extracted proteins were loaded on 4-20% Protein Gel (Bio-Rad, 4568096) and then transferred onto a PVDF membrane (Bio-Rad, 1620177) using Tris-Glycine buffer with 20% of methanol. […]
structure (smiles),measurement,setting,value
"COc1ccc2c(c1OC)c(=O)n1c3ccc(O)cc3c3ccnc2c31 [MW01, 5-Hydroxy-10,11-dimethoxy-9H-benzo[c]indolo[3,2,1-ij][1,5]naphthyridin-9-one]",degradation in cell culture conditions,[1],minimal degradation
same,TNFα stimulated IC50 of p65 nuclear translocation,[2],out of range
same,"phosphorylation of p65 at serine 536, TNFα-stimulated",[3],untouched
"COc1ccc2cc3c(N)nn(C(=O)c4cccc(N(C)C)c4)c3nc2c1 [MW05, (3-Amino-7-methoxypyrazolo[3,4-b]quinolin-1-yl)-[3-(dimethylamino)phenyl]methanone]",degradation in cell culture conditions,[1],minimal degradation
same,TNFα stimulated IC50 of p65 nuclear translocation,[2],out of range
same,"phosphorylation of p65 at serine 536, TNFα-stimulated",[3],untouched
